# Assay results taken from the NIST ThermoML archive (doi:10.1007/s10765-010-0766-0).
# Several values for one entry are separate records, joined by “and”; a condition that tells them apart may be missing. Equal values may be shown once. ± gives the expanded uncertainty stated by the source.
# Assay: molar heat capacity at constant volume
# Conditions: Liquid, Vacuum adiabatic calorimetry
smiles,measurement,setting,value
"FC(F)C(F)(F)OCC(F)(F)F [2,2,2-trifluoroethyl 1,1,2,2-tetrafluoroethyl ether]",molar heat capacity at constant volume,"342.15 K, 16809 kPa",207.06 ± 9.4 J/K/mol
same,molar heat capacity at constant volume,"342.15 K, 16812 kPa",204.66 ± 9.2 J/K/mol
same,molar heat capacity at constant volume,"343.15 K, 17505 kPa",207.06 ± 9.4 J/K/mol
same,molar heat capacity at constant volume,"343.15 K, 17508 kPa",209.46 ± 9.4 J/K/mol
same,molar heat capacity at constant volume,"344.15 K, 18201 kPa",208.46 ± 9.4 J/K/mol
same,molar heat capacity at constant volume,"344.15 K, 18203 kPa",206.86 ± 9.4 J/K/mol
same,molar heat capacity at constant volume,"345.15 K, 18896 kPa",207.66 ± 9.4 J/K/mol
same,molar heat capacity at constant volume,"345.15 K, 18898 kPa",208.46 ± 9.4 J/K/mol
same,molar heat capacity at constant volume,"346.15 K, 19590 kPa",208.86 ± 9.4 J/K/mol
same,molar heat capacity at constant volume,"346.15 K, 19592 kPa",209.46 ± 9.4 J/K/mol
same,molar heat capacity at constant volume,"347.15 K, 20282 kPa",208.46 ± 9.4 J/K/mol
same,molar heat capacity at constant volume,"347.15 K, 20287 kPa",209.26 ± 9.4 J/K/mol
same,molar heat capacity at constant volume,"348.15 K, 20974 kPa",209.86 ± 9.4 J/K/mol
same,molar heat capacity at constant volume,"348.15 K, 20978 kPa",208.06 ± 9.4 J/K/mol
same,molar heat capacity at constant volume,"349.15 K, 21666 kPa",210.06 ± 9.4 J/K/mol
same,molar heat capacity at constant volume,"349.15 K, 21671 kPa",208.66 ± 9.4 J/K/mol
same,molar heat capacity at constant volume,"350.15 K, 22357 kPa",208.66 ± 9.4 J/K/mol
same,molar heat capacity at constant volume,"350.15 K, 22360 kPa",209.86 ± 9.4 J/K/mol
same,molar heat capacity at constant volume,"351.15 K, 23047 kPa",209.86 ± 9.4 J/K/mol
same,molar heat capacity at constant volume,"351.15 K, 23050 kPa",209.26 ± 9.4 J/K/mol
same,molar heat capacity at constant volume,"352.15 K, 23735 kPa",210.86 ± 9.4 J/K/mol
same,molar heat capacity at constant volume,"352.15 K, 23739 kPa",210.46 ± 9.4 J/K/mol
same,molar heat capacity at constant volume,"353.15 K, 24423 kPa",210.26 ± 9.4 J/K/mol
same,molar heat capacity at constant volume,"353.15 K, 24426 kPa",208.06 ± 9.4 J/K/mol
same,molar heat capacity at constant volume,"354.15 K, 25110 kPa",210.86 ± 9.4 J/K/mol
same,molar heat capacity at constant volume,"354.15 K, 25114 kPa",212.46 ± 9.6 J/K/mol
same,molar heat capacity at constant volume,"355.15 K, 25797 kPa",211.06 ± 9.6 J/K/mol
same,molar heat capacity at constant volume,"355.15 K, 25801 kPa",209.46 ± 9.4 J/K/mol
same,molar heat capacity at constant volume,"356.15 K, 26482 kPa",211.86 ± 9.6 J/K/mol
same,molar heat capacity at constant volume,"356.15 K, 26486 kPa",212.66 ± 9.6 J/K/mol
same,molar heat capacity at constant volume,"357.15 K, 27166 kPa",211.26 ± 9.6 J/K/mol
same,molar heat capacity at constant volume,"357.15 K, 27171 kPa",210.26 ± 9.4 J/K/mol
same,molar heat capacity at constant volume,"358.15 K, 27851 kPa",212.26 ± 9.6 J/K/mol
same,molar heat capacity at constant volume,"358.15 K, 27855 kPa",211.46 ± 9.6 J/K/mol
same,molar heat capacity at constant volume,"359.15 K, 5632 kPa",208.86 ± 9.4 J/K/mol
same,molar heat capacity at constant volume,"359.15 K, 5637 kPa",212.66 ± 9.6 J/K/mol
same,molar heat capacity at constant volume,"359.15 K, 28535 kPa",212.86 ± 9.6 J/K/mol
same,molar heat capacity at constant volume,"359.15 K, 28538 kPa",210.46 ± 9.4 J/K/mol
same,molar heat capacity at constant volume,"360.15 K, 6174 kPa",219.66 ± 9.8 J/K/mol
same,molar heat capacity at constant volume,"360.15 K, 6180 kPa",217.06 ± 9.8 J/K/mol
same,molar heat capacity at constant volume,"360.15 K, 29217 kPa",214.06 ± 9.6 J/K/mol
same,molar heat capacity at constant volume,"360.15 K, 29220 kPa",212.66 ± 9.6 J/K/mol
same,molar heat capacity at constant volume,"361.15 K, 6718 kPa",218.26 ± 9.8 J/K/mol
same,molar heat capacity at constant volume,"361.15 K, 6724 kPa",216.66 ± 9.8 J/K/mol
same,molar heat capacity at constant volume,"361.15 K, 29899 kPa",213.46 ± 9.6 J/K/mol
same,molar heat capacity at constant volume,"361.15 K, 29902 kPa",211.26 ± 9.6 J/K/mol
same,molar heat capacity at constant volume,"362.15 K, 7261 kPa",215.86 ± 9.8 J/K/mol
same,molar heat capacity at constant volume,"362.15 K, 7266 kPa",216.46 ± 9.8 J/K/mol
same,molar heat capacity at constant volume,"363.15 K, 7803 kPa",218.26 ± 9.8 J/K/mol
same,molar heat capacity at constant volume,"363.15 K, 7809 kPa",215.46 ± 9.6 J/K/mol
same,molar heat capacity at constant volume,"364.15 K, 8346 kPa",219.06 ± 9.8 J/K/mol
same,molar heat capacity at constant volume,"364.15 K, 8350 kPa",216.06 ± 9.8 J/K/mol
same,molar heat capacity at constant volume,"365.15 K, 8888 kPa",216.66 ± 9.8 J/K/mol
same,molar heat capacity at constant volume,"365.15 K, 8892 kPa",215.86 ± 9.8 J/K/mol
same,molar heat capacity at constant volume,"366.15 K, 9430 kPa",217.86 ± 9.8 J/K/mol
same,molar heat capacity at constant volume,"366.15 K, 9434 kPa",216.86 ± 9.8 J/K/mol
same,molar heat capacity at constant volume,"367.15 K, 9971 kPa",217.46 ± 9.8 J/K/mol
same,molar heat capacity at constant volume,"367.15 K, 9976 kPa",214.46 ± 9.6 J/K/mol
same,molar heat capacity at constant volume,"368.15 K, 10512 kPa",219.06 ± 9.8 J/K/mol
same,molar heat capacity at constant volume,"368.15 K, 10516 kPa",216.46 ± 9.8 J/K/mol
same,molar heat capacity at constant volume,"369.15 K, 11053 kPa",221.26 ± 10 J/K/mol
same,molar heat capacity at constant volume,"369.15 K, 11057 kPa",217.06 ± 9.8 J/K/mol
same,molar heat capacity at constant volume,"370.15 K, 11593 kPa",218.86 ± 9.8 J/K/mol
same,molar heat capacity at constant volume,"370.15 K, 11598 kPa",217.46 ± 9.8 J/K/mol
same,molar heat capacity at constant volume,"371.15 K, 12133 kPa",218.66 ± 9.8 J/K/mol
same,molar heat capacity at constant volume,"371.15 K, 12137 kPa",218.86 ± 9.8 J/K/mol
same,molar heat capacity at constant volume,"372.15 K, 12673 kPa",218.86 ± 9.8 J/K/mol
same,molar heat capacity at constant volume,"372.15 K, 12677 kPa",215.86 ± 9.8 J/K/mol
same,molar heat capacity at constant volume,"373.15 K, 13212 kPa",219.66 ± 9.8 J/K/mol
same,molar heat capacity at constant volume,"373.15 K, 13216 kPa",217.86 ± 9.8 J/K/mol
same,molar heat capacity at constant volume,"374.15 K, 13752 kPa",219.46 ± 9.8 J/K/mol
same,molar heat capacity at constant volume,"374.15 K, 13756 kPa",217.66 ± 9.8 J/K/mol
same,molar heat capacity at constant volume,"375.15 K, 14290 kPa",217.86 ± 9.8 J/K/mol
same,molar heat capacity at constant volume,"375.15 K, 14294 kPa",219.06 ± 9.8 J/K/mol
same,molar heat capacity at constant volume,"376.15 K, 14828 kPa",220.86 ± 10 J/K/mol
same,molar heat capacity at constant volume,"376.15 K, 14831 kPa",218.86 ± 9.8 J/K/mol
same,molar heat capacity at constant volume,"377.15 K, 15366 kPa",220.06 ± 10 J/K/mol
same,molar heat capacity at constant volume,"377.15 K, 15369 kPa",218.46 ± 9.8 J/K/mol
same,molar heat capacity at constant volume,"378.15 K, 15904 kPa",218.46 ± 9.8 J/K/mol
same,molar heat capacity at constant volume,"378.15 K, 15906 kPa",219.66 ± 9.8 J/K/mol
same,molar heat capacity at constant volume,"379.15 K, 16441 kPa",218.86 ± 9.8 J/K/mol
same,molar heat capacity at constant volume,"379.15 K, 16443 kPa",219.86 ± 9.8 J/K/mol
same,molar heat capacity at constant volume,"380.15 K, 16977 kPa",219.26 ± 9.8 J/K/mol
same,molar heat capacity at constant volume,"380.15 K, 16980 kPa",219.46 ± 9.8 J/K/mol
same,molar heat capacity at constant volume,"381.15 K, 17514 kPa",219.26 ± 9.8 J/K/mol
same,molar heat capacity at constant volume,"381.15 K, 17515 kPa",217.26 ± 9.8 J/K/mol
same,molar heat capacity at constant volume,"382.15 K, 18050 kPa",219.86 ± 9.8 J/K/mol
same,molar heat capacity at constant volume,"382.15 K, 18051 kPa",219.66 ± 9.8 J/K/mol
same,molar heat capacity at constant volume,"383.15 K, 18585 kPa",221.26 ± 10 J/K/mol
same,molar heat capacity at constant volume,"383.15 K, 18586 kPa",221.46 ± 10 J/K/mol
same,molar heat capacity at constant volume,"384.15 K, 19120 kPa",220.66 ± 10 J/K/mol
same,molar heat capacity at constant volume,"384.15 K, 19121 kPa",222.06 ± 10 J/K/mol
same,molar heat capacity at constant volume,"385.15 K, 19655 kPa",218.86 ± 9.8 J/K/mol
same,molar heat capacity at constant volume,"385.15 K, 19656 kPa",220.66 ± 10 J/K/mol
same,molar heat capacity at constant volume,"386.15 K, 20189 kPa",221.06 ± 10 J/K/mol
same,molar heat capacity at constant volume,"387.15 K, 20723 kPa",223.66 ± 10 J/K/mol and 224.66 ± 10 J/K/mol
same,molar heat capacity at constant volume,"388.15 K, 21256 kPa",224.66 ± 10 J/K/mol and 224.06 ± 10 J/K/mol
same,molar heat capacity at constant volume,"389.15 K, 21789 kPa",225.66 ± 10 J/K/mol and 224.86 ± 10 J/K/mol
same,molar heat capacity at constant volume,"390.15 K, 22322 kPa",226.86 ± 10 J/K/mol and 224.86 ± 10 J/K/mol
same,molar heat capacity at constant volume,"391.15 K, 22854 kPa",224.66 ± 10 J/K/mol
same,molar heat capacity at constant volume,"391.15 K, 22855 kPa",228.46 ± 10 J/K/mol
same,molar heat capacity at constant volume,"392.15 K, 23385 kPa",225.06 ± 10 J/K/mol
same,molar heat capacity at constant volume,"392.15 K, 23386 kPa",227.06 ± 10 J/K/mol
same,molar heat capacity at constant volume,"393.15 K, 23917 kPa",228.26 ± 10 J/K/mol and 226.46 ± 10 J/K/mol
same,molar heat capacity at constant volume,"394.15 K, 24448 kPa",226.26 ± 10 J/K/mol and 223.66 ± 10 J/K/mol
same,molar heat capacity at constant volume,"395.15 K, 24978 kPa",226.66 ± 10 J/K/mol and 225.06 ± 10 J/K/mol
same,molar heat capacity at constant volume,"396.15 K, 25507 kPa",229.06 ± 10 J/K/mol
same,molar heat capacity at constant volume,"396.15 K, 25508 kPa",226.86 ± 10 J/K/mol
same,molar heat capacity at constant volume,"397.15 K, 26037 kPa",228.06 ± 10 J/K/mol
same,molar heat capacity at constant volume,"397.15 K, 26038 kPa",226.06 ± 10 J/K/mol
same,molar heat capacity at constant volume,"398.15 K, 26566 kPa",229.06 ± 10 J/K/mol
same,molar heat capacity at constant volume,"398.15 K, 26567 kPa",227.06 ± 10 J/K/mol
same,molar heat capacity at constant volume,"399.15 K, 27094 kPa",227.06 ± 10 J/K/mol
same,molar heat capacity at constant volume,"399.15 K, 27096 kPa",227.86 ± 10 J/K/mol
same,molar heat capacity at constant volume,"400.15 K, 27622 kPa",228.66 ± 10 J/K/mol
same,molar heat capacity at constant volume,"400.15 K, 27623 kPa",228.46 ± 10 J/K/mol
same,molar heat capacity at constant volume,"401.15 K, 28150 kPa",229.66 ± 10 J/K/mol
same,molar heat capacity at constant volume,"401.15 K, 28151 kPa",227.66 ± 10 J/K/mol
same,molar heat capacity at constant volume,"402.15 K, 28677 kPa",226.66 ± 10 J/K/mol
same,molar heat capacity at constant volume,"402.15 K, 28678 kPa",227.26 ± 10 J/K/mol
same,molar heat capacity at constant volume,"403.15 K, 29204 kPa",229.26 ± 10 J/K/mol
same,molar heat capacity at constant volume,"403.15 K, 29205 kPa",227.86 ± 10 J/K/mol
same,molar heat capacity at constant volume,"404.15 K, 29730 kPa",227.86 ± 10 J/K/mol
same,molar heat capacity at constant volume,"404.15 K, 29732 kPa",229.86 ± 10 J/K/mol
